This passage reports IC50 results from ChEMBL document CHEMBL1145215, “Design, synthesis, and biological evaluation of achiral analogs of duocarmycin SA” (Bioorg Med Chem Lett, 2005).

The subject of one assay is K562. Briefly: Cytotoxicity was determined against K562 (chronic human myeloid leukemia )cells. Format: functional, cell-based.
Another assay has as its system LS174T. Briefly: Cytotoxicity against LS174T (human colon carcinoma )cells. Format: functional, cell-based.

Regarding `COc1cc2cc(C(=O)Nc3cc(O)ccc3CCCl)[nH]c2c(OC)c1OC`, the results for the IC50 with K562 and with LS174T were 1470 nM and 13800 nM, respectively.

For `COC(=O)c1[nH]c2c(O)cc(NC(=O)c3cc4cc(OC)c(OC)c(OC)c4[nH]3)c(CCCl)c2c1C(=O)OC`, the concentration for half-maximal inhibition (IC50) (commonly the concentration that gives 50% inhibition) in the assay with K562 is 25 nM; in the assay on LS174T, 4 nM.

Turning to `COC(=O)c1[nH]c2c(O)cc(NC(=O)c3cc4cc(NC(=O)c5cc6ccccc6o5)ccc4[nH]3)c(CCCl)c2c1C(=O)OC`, the IC50 was 25 nM in the assay with K562 and 4 nM with LS174T.
